According to patent publication US8648080B2, “Acid pump antagonist for the treatment of diseases involved in abnormal gastrointestinal motility” (RaQualia Pharma Inc., priority 2009, dated 2014):

Tested on: gastrointestinal motility in the gastric antrum and duodenum
Test: gastrointestinal motility under pentagastrin-stimulated gastric acid secretion in conscious dogs with force transducers
Format: in vivo, Beagle dogs
Description: Beagle dogs surgically wearing a force transducer at gastric antrum and serosal side of duodenum were used, and the motion of the gastric antrum and duodenum under wakefulness were observed. After confirming the phase III in the hungry condition, gastric acid secretion was stimulated by pentagastrin subcutaneous infusion (6 microg/kg/hr). Pentagastrin infusion was continued until the end of the study. After about 2 hours from pentagastrin infusion, an acid pump antagonist (compound A) was orally administered, and then gastrointestinal motility was continuously observed for 2-3 hours. In FIG. 1, the horizontal axis represents the time at measuring, and the vertical axis represents the gastrointestinal contraction towards muscle bridge of gastric antrum or duodenum. The phase III contraction disappeared by pentagastrin stimulation, 6 microg/kg/hr, which is known to promote gastric acid secretion; and uncoordinated contraction, which is different from the contraction of postprandial period with solid food, occurred in the stomach and duodenum.

COCCn1c(C)nc2cc(C(=O)N(C)C)c3c(c21)OC(c1ccccc1)CC3 (single isomer, unassigned; (-)) [compound A, (−)-1-(2-methoxyethyl)-N,N,2-trimethyl-8-phenyl-1,6,7,8-tetrahydrochromeno[7,8-d]imidazole-5-carboxamide]
effect on gastrointestinal motility (phase III contraction / IMC) (0.3 mg/kg orally, about 2 hours after start of pentagastrin s.c. infusion 6 microg/kg/hr, hungry condition, FIG. 1): the phase III contraction occurred in the stomach and duodenum | time after administration at which phase III contraction occurred (0.3 mg/kg orally, pentagastrin infusion 6 microg/kg/hr, stomach and duodenum): one

Cc1cccc(C)c1CNc1cc(C(=O)NCCO)cn2c(C)c(C)nc12 [AZD0865, 8-[{2,6-dimethylbenzyl}amino]-N-[2-hydroxyethyl]-2,3-dimethyl-imidazo[1,2-a]pyridin-6-carboxamide]
time after dosing until irregular contraction tended to subside (1.5 mg/kg orally, pentagastrin infusion, method as Example 1): one | effect on gastrointestinal motility (phase III contraction / IMC) (1.5 mg/kg orally, pentagastrin infusion, method as Example 1, FIG. 4): IMC occurred

Cc1nc2c(O[C@H]3CCOc4cc(F)cc(F)c43)cc(C(=O)N(C)C)cc2[nH]1 [compound B, (S)-(−)-4-[(5,7-difluoro-3,4-dihydro-2H-chromen-4-yl)oxy]-N,N,2-trimethyl-1H-benzimidazole-6-carboxamide]
time after dosing until IMC occurred (1 mg/kg orally, pentagastrin infusion, method as Example 1): one | effect on gastrointestinal motility (phase III contraction / IMC) (1 mg/kg orally, pentagastrin infusion, method as Example 1, FIG. 2): IMC occurred

Cc1nc(Nc2ccc(F)cc2)nc(N2CCc3ccccc3C2C)c1C.Cl (centres unmarked) [revaprazan, 5,6-dimethyl-2-(4-fluoro-phenylamino)-4-(1-methyl-1,2,3,4-tetrahydroisoquinoline-2-yl)pyrimidine hydrochloride]
time after dosing until irregular contraction tended to subside (10 mg/kg orally, pentagastrin infusion, method as Example 1): one | effect on gastrointestinal motility (phase III contraction / IMC) (10 mg/kg orally, pentagastrin infusion, method as Example 1, FIG. 3): IMC occurred
